“And” between values parts separate entries of the source, which are not always exact repeats. Equal entries are not always repeated. Where two headings read alike, the source gives them in different places.
Columns and labels:
[1] = system: human colon cancer HCT116; experiment: Cancer cell line growth inhibition assay (DNA content); format: cell-based; conditions: for Cellular IC50s HCT-116: Table 1, triazole derivatives, one cell printed for both cell lines; for IC50: HCT-116; for activity in cell growth inhibition: HCT116, statement in text
Method: (§1) The growth inhibition assay was performed in the Preclinical Drug Testing Laboratory of the Case Comprehensive Cancer Center using a standardized protocol. Cell lines (human colon cancer HCT116 and human pancreas ductal adenocarcinoma Panc cells) were maintained in standard growth media; RPMI1640+10% FBS+2 mM glutamine+100 U/ml penicillin, 100 ug/ml streptomycin and shown to be negative for mycoplasma contamination using the MycoAlert™ Mycoplasma Detection kit (Lonza, Basel, Switzerland). Cell identity was verified by Short Tandem Repeat (STR) testing performed using the Promega StemElite kit, in the Genetic Resources Core Facility (GRCF) at Johns Hopkins University.
(§2) For growth inhibition assays, cells were harvested by trypsinization and seeded into 96-well tissue culture plates at 2500 cells/mL. The following day an equal volume of 2×-drug containing medium was added to each well. The cells were cultured for 3 additional days at 37° C. in a 5% CO2 humidified incubator. Cell growth was assessed by measuring DNA content per well using the method of Labarca and Paigen. Dye fluorescence was measured in a Perkin-Elmer 1420 Victor 3 Multilabel plate reader using 355 nm excitation and 460 nm emission.

[2] = system: human pancreas ductal adenocarcinoma Panc cells (Panc1); experiment: as above; format: cell-based; conditions: for Cellular IC50s Panc 1: Table 1, triazole derivatives, one cell printed for both cell lines; for activity in cell growth inhibition: Panc1, statement in text
Method: as §1, §2

[3] = target: T1, hRRM1 hexamers (Homo sapiens, UniProt P23921); conditions: background statement; cited from earlier work
T1 sequence (P23921 1-792): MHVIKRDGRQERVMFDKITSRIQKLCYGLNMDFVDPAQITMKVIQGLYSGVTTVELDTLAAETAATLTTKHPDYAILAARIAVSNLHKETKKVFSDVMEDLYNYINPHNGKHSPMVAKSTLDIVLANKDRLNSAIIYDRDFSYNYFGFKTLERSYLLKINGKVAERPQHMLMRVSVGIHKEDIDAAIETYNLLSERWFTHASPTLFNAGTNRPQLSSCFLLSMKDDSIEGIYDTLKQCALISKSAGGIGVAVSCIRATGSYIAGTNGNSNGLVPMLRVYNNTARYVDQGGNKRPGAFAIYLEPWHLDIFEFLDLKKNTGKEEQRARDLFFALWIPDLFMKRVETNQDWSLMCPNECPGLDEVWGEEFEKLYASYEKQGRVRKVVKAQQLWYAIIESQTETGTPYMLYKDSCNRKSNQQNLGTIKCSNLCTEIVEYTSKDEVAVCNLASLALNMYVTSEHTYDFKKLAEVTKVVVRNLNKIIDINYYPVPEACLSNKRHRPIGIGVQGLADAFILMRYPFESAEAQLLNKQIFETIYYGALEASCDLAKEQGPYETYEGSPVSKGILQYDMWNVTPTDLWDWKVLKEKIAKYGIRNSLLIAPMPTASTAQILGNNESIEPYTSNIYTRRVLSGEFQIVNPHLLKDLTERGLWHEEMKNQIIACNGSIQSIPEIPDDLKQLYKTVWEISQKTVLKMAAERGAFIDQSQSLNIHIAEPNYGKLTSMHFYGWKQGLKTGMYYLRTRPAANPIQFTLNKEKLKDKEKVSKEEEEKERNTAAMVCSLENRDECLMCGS

[4] = system: normal mobilized peripheral blood progenitor cells; conditions: previously characterized; cited from earlier work
[5] = Homo sapiens, Calcusyn fit, runs Oct. 21 and Oct. 24, 2016, read-out: Dm
[6] = Homo sapiens, PANC-1, Panc1, Calcusyn fit, runs Oct. 21 and Oct. 24, 2016, read-out: Dm
[7] = Homo sapiens, Table 2, oxadiazoles, read-out: Cellular IC50s HCT-116
[8] = Homo sapiens, PANC-1, Table 2, oxadiazoles, read-out: Cellular IC50s Panc 1

IC50 [1, 5] | IC50 [2, 6] | Structure (SMILES) | Cellular IC50s HCT-116 [1] | Cellular IC50s Panc 1 [2] | other results
 |  | NC1(c2cn([C@H](c3ccccc3)[C@H](O)c3ccccc3)nn2)CCCCC1 [drawing 59] | No cytotoxicity | No cytotoxicity | 
 |  | O=C(c1c(O)ccc2ccccc12)n1cc(-c2cccnc2)nn1 [drawing 60] | No cytotoxicity | No cytotoxicity | 
 |  | COc1ccc2cc(-c3cn(Cc4ccccc4)nn3)ccc2c1 | No cytotoxicity | No cytotoxicity | 
> 10000 nM | > 10000 nM | O=C(c1c(O)ccc2ccccc12)n1cc(-c2cccnc2)nn1 [NSAAT F] |  |  | 
 |  | C[C@@H]([C@H](O)c1ccccc1)n1cc(-c2c(O)ccc3ccccc23)nn1 | No cytotoxicity | No cytotoxicity | 
 |  | COc1ccc2cc(-c3cn(CCc4ccc(O)cc4)nn3)ccc2c1 | No cytotoxicity | No cytotoxicity | 
 |  | Nc1nc(Cl)nc2c1ncn2[C@@H]1O[C@H](CO)[C@@H](O)[C@@H]1F [clofarabine, 2′-fluro-2′-deoxyarabinofuranosyl-2-chloroadenine] |  |  | binding affinity [3]: nanomolar affinity
 |  | O=C(NN=Cc1c(O)ccc2ccccc12)c1ccccc1O [NSAAH, Naphthyl Salicyl Acyl Hydrazone, reference compound] |  |  | cytotoxicity [4]: little measurable cytotoxicity; IC50 ([1]; Calcusyn fit, runs Oct. 21 and Oct. 24, 2016, listed as NSAAH (new), read-out: Dm): 176 nM; IC50 ([1]; Calcusyn fit, runs Oct. 21 and Oct. 24, 2016, listed as NSAAH (old), read-out: Dm): 234 nM and 166 nM; IC50 ([2]; Panc1, Calcusyn fit, runs Oct. 21 and Oct. 24, 2016, listed as NSAAH (new), read-out: Dm): 850 nM; IC50 ([2]; Panc1, Calcusyn fit, runs Oct. 21 and Oct. 24, 2016, listed as NSAAH (old), read-out: Dm): 550 nM and 480 nM
 |  | O=C(O)CC(c1ccccc1)n1cc(-c2c(O)ccc3ccccc23)nn1 (stereo not drawn) | No cytotoxicity | No cytotoxicity | 
 |  | Cc1c(-n2cc(-c3c(O)ccc4ccccc34)nn2)c(=O)n(-c2ccccc2)n1C | No cytotoxicity | No cytotoxicity | 
6890 nM | 53600 nM | Oc1ccccc1-c1nnc(-c2c(O)ccc3ccccc23)o1 [Oxa A] |  |  | activity in cell growth inhibition [1]: low micromolar range; IC50 [1, 7]: 3200 nM; IC50 [2, 8]: 7000 nM; activity in cell growth inhibition [2]: low micromolar range
1410 nM | 1920 nM | Oc1ccc2ccccc2c1-c1nnc(-c2cccnc2)o1 [Oxa F] |  |  | activity in cell growth inhibition [1]: low micromolar range; IC50 [1, 7]: 1200 nM; IC50 [2, 8]: 2500 nM; activity in cell growth inhibition [2]: low micromolar range

Structure (SMILES) | IC50 [1, 5] | IC50 [2, 6] | Cellular IC50s HCT-116 [1] | Cellular IC50s Panc 1 [2] | other results
NC1(c2cn([C@H](c3ccccc3)[C@H](O)c3ccccc3)nn2)CCCCC1 [NSAAT E] | 66800 nM | > 10000 nM |  |  | 
